Laboratory results from patent US9187472B2 (AbbVie Inc., priority 2012, dated 2015).

System: PC3 cells
Assay: NAMPT Cell Proliferation Assay
Assay type: cell-based
Conditions: 5 days incubation, cell viability by Cell Titer Glo
Method in brief: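 IC50 values derive from sigmoidal dose-response fits of percent inhibition of PC3 viability, measured by luminescence after 5 days of compound treatment. Cells (500/well, RPMI containing 10% heat-inactivated FBS) are allowed to attach overnight, and compounds are tested at 10-fold dilutions between 10 μM and 1×10^−5 μM.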

IC50 (Homo sapiens, PC-3, 120 h) [nM] | IC50 [nM] | SMILES
28.9 | – | O=C(NCc1ccn2ccnc2c1)c1ccc(C2CCN(C(=O)Cc3cccnc3Cl)CC2)cc1 [Example 972, 4-{1-[(2-chloropyridin-3-yl)acetyl]piperidin-4-yl}-N-(imidazo[1,2-a]pyridin-7-ylmethyl)benzamide]
28.7 | – | O=C(NCc1ccn2ccnc2c1)c1ccc(C2CCN(C(=O)C3=Cc4ccccc4OC3)CC2)cc1 [Example 974, 4-[1-(2H-chromen-3-ylcarbonyl)piperidin-4-yl]-N-(imidazo[1,2-a]pyridin-7-ylmethyl)benzamide]
50.3 | – | O=C(NCc1ccn2ccnc2c1)c1ccc(C2CCN(C(=O)c3ncc(F)cc3F)CC2)cc1 [Example 975, 4-{1-[(3,5-difluoropyridin-2-yl)carbonyl]piperidin-4-yl}-N-(imidazo[1,2-a]pyridin-7-ylmethyl)benzamide]
2.02 | – | O=C(NCc1ccn2ccnc2c1)c1ccc(C2CCN(C(=O)c3cccc4c3OCCO4)CC2)cc1 [Example 978, 4-[1-(2,3-dihydro-1,4-benzodioxin-5-ylcarbonyl)piperidin-4-yl]-N-(imidazo[1,2-a]pyridin-7-ylmethyl)benzamide]
75.7 | – | O=C(NCc1ccn2ccnc2c1)c1ccc(C2CCN(C(=O)c3cncc4ccccc34)CC2)cc1 [Example 979, N-(imidazo[1,2-a]pyridin-7-ylmethyl)-4-[1-(isoquinolin-4-ylcarbonyl)piperidin-4-yl]benzamide]
29.4 | – | Cc1nc2ccc(C(=O)N3CCC(c4ccc(C(=O)NCc5ccn6ccnc6c5)cc4)CC3)cc2o1 [Example 980, N-(imidazo[1,2-a]pyridin-7-ylmethyl)-4-{1-[(2-methyl-1,3-benzoxazol-6-yl)carbonyl]piperidin-4-yl}benzamide]
724 | – | O=C(NCc1ccn2ccnc2c1)c1ccc(C2CCN(C(=O)c3cc4ncccc4s3)CC2)cc1 [Example 983, N-(imidazo[1,2-a]pyridin-7-ylmethyl)-4-[1-(thieno[3,2-b]pyridin-2-ylcarbonyl)piperidin-4-yl]benzamide]
55.4 | – | O=C(NCc1ccn2ccnc2c1)c1ccc(C2CCN(C(=O)c3ccc4cccnc4c3)CC2)cc1 [Example 984, N-(imidazo[1,2-a]pyridin-7-ylmethyl)-4-[1-(quinolin-7-ylcarbonyl)piperidin-4-yl]benzamide]
28.3 | – | N#Cc1ccc(F)c(C(=O)N2CCC(c3ccc(C(=O)NCc4ccn5ccnc5c4)cc3)CC2)c1 [Example 985, 4-[1-(5-cyano-2-fluorobenzoyl)piperidin-4-yl]-N-(imidazo[1,2-a]pyridin-7-ylmethyl)benzamide]
60.1 | – | O=C(NCc1ccn2ccnc2c1)c1ccc(C2CCN(C(=O)c3ccc4ccncc4c3)CC2)cc1 [Example 988, N-(imidazo[1,2-a]pyridin-7-ylmethyl)-4-[1-(isoquinolin-7-ylcarbonyl)piperidin-4-yl]benzamide]
68.2 | – | O=C(NCc1ccn2ccnc2c1)c1ccc(C2CCN(C(=O)c3cnc4ccccc4n3)CC2)cc1 [Example 989, N-(imidazo[1,2-a]pyridin-7-ylmethyl)-4-[1-(quinoxalin-2-ylcarbonyl)piperidin-4-yl]benzamide]
– | 66.9 | O=C(NCc1ccn2ccnc2c1)c1ccc(C2CCN(C(=O)/C=C/c3ccccn3)CC2)cc1 [Example 991, -(imidazo[1,2-a]pyridin-7-ylmethyl)-4-{1-[(2E)-3-(pyridin-2-yl)prop-2-enoyl]piperidin-4-yl}benzamide]
584 | – | Cc1cccn2cc(C(=O)N3CCC(c4ccc(C(=O)NCc5ccn6ccnc6c5)cc4)CC3)nc12 [Example 992, N-(imidazo[1,2-a]pyridin-7-ylmethyl)-4-{1-[(8-methylimidazo[1,2-a]pyridin-2-yl)carbonyl]piperidin-4-yl}benzamide]
74 | – | CCOc1cc(C(=O)N2CCC(c3ccc(C(=O)NCc4ccn5ccnc5c4)cc3)CC2)ccn1 [Example 993, 4-{1-[(2-ethoxypyridin-4-yl)carbonyl]piperidin-4-yl}-N-(imidazo[1,2-a]pyridin-7-ylmethyl)benzamide]
19.4 | – | O=C(NCc1ccn2ccnc2c1)c1ccc(C2CCN(C(=O)c3cccc4ccncc34)CC2)cc1 [Example 997, N-(imidazo[1,2-a]pyridin-7-ylmethyl)-4-[1-(isoquinolin-8-ylcarbonyl)piperidin-4-yl]benzamide]
684 | – | N#Cc1cc(C(=O)N2CCC(c3ccc(C(=O)NCc4ccn5ccnc5c4)cc3)CC2)ccc1F [Example 999, 4-[1-(3-cyano-4-fluorobenzoyl)piperidin-4-yl]-N-(imidazo[1,2-a]pyridin-7-ylmethyl)benzamide]
95.3 | – | O=C(NCc1ccn2ccnc2c1)c1ccc(C2CCN(C(=O)c3nc4ccccc4s3)CC2)cc1 [Example 1001, 4-[1-(1,3-benzothiazol-2-ylcarbonyl)piperidin-4-yl]-N-(imidazo[1,2-a]pyridin-7-ylmethyl)benzamide]

Further lines, the compound ahead of its results:

SMILES | IC50 (Homo sapiens, PC-3, 120 h) [nM] | IC50 [nM]
O=C(NCc1ccn2ccnc2c1)c1ccc(C2CCN(C(=O)c3ccnn3C(F)F)CC2)cc1 [Example 969, 4-(1-{[1-(difluoromethyl)-1H-pyrazol-5-yl]carbonyl}piperidin-4-yl)-N-(imidazo[1,2-a]pyridin-7-ylmethyl)benzamide] | 6.36 | –
O=C(NCc1ccn2ccnc2c1)c1ccc(C2CCN(C(=O)c3ccc4c(c3)CCCO4)CC2)cc1 [Example 970, 4-[1-(3,4-dihydro-2H-chromen-6-ylcarbonyl)piperidin-4-yl]-N-(imidazo[1,2-a]pyridin-7-ylmethyl)benzamide] | 10.9 | –
O=C(NCc1ccn2ccnc2c1)c1ccc(C2CCN(C(=O)COC3CCCCC3)CC2)cc1 [Example 971, 4-{1-[(cyclohexyloxy)acetyl]piperidin-4-yl}-N-(imidazo[1,2-a]pyridin-7-ylmethyl)benzamide] | 22.6 | –
O=C(NCc1ccn2ccnc2c1)c1ccc(C2CCN(C(=O)c3cc(C4CC4)on3)CC2)cc1 [Example 973, 4-{1-[(5-cyclopropyl-1,2-oxazol-3-yl)carbonyl]piperidin-4-yl}-N-(imidazo[1,2-a]pyridin-7-ylmethyl)benzamide] | 21.8 | –
O=C(NCc1ccn2ccnc2c1)c1ccc(C2CCN(C(=O)C3COc4ccccc4O3)CC2)cc1 (stereo not shown) [Example 976, 4-[1-(2,3-dihydro-1,4-benzodioxin-2-ylcarbonyl)piperidin-4-yl]-N-(imidazo[1,2-a]pyridin-7-ylmethyl)benzamide] | 34.9 | –
COC1CCC(C(=O)N2CCC(c3ccc(C(=O)NCc4ccn5ccnc5c4)cc3)CC2)CC1 (stereo not shown) [Example 977, N-(imidazo[1,2-a]pyridin-7-ylmethyl)-4-{1-[(4-methoxycyclohexyl)carbonyl]piperidin-4-yl}benzamide] | 2.65 | –
Cc1cc(C(=O)N2CCC(c3ccc(C(=O)NCc4ccn5ccnc5c4)cc3)CC2)n(C(C)(C)C)n1 [Example 981, 4-{1-[(1-tert-butyl-3-methyl-1H-pyrazol-5-yl)carbonyl]piperidin-4-yl}-N-(imidazo[1,2-a]pyridin-7-ylmethyl)benzamide] | 6.54 | –
N#CC1(C(=O)N2CCC(c3ccc(C(=O)NCc4ccn5ccnc5c4)cc3)CC2)CCCC1 [Example 982, 4-{1-[(1-cyanocyclopentyl)carbonyl]piperidin-4-yl}-N-(imidazo[1,2-a]pyridin-7-ylmethyl)benzamide] | 100 | –
O=C(NCc1ccn2ccnc2c1)c1ccc(C2CCN(C(=O)c3cnc4c(c3)CCCC4)CC2)cc1 [Example 986, N-(imidazo[1,2-a]pyridin-7-ylmethyl)-4-[1-(5,6,7,8-tetrahydroquinolin-3-ylcarbonyl)piperidin-4-yl]benzamide] | 21.4 | –
O=C(NCc1ccn2ccnc2c1)c1ccc(C2CCN(C(=O)c3cnc4c(c3)CCCO4)CC2)cc1 [Example 987, 4-[1-(3,4-dihydro-2H-pyrano[2,3-b]pyridin-6-ylcarbonyl)piperidin-4-yl]-N-(imidazo[1,2-a]pyridin-7-ylmethyl)benzamide] | 543 | –
COc1ncccc1/C=C/C(=O)N1CCC(c2ccc(C(=O)NCc3ccn4ccnc4c3)cc2)CC1 [Example 990, N-(imidazo[1,2-a]pyridin-7-ylmethyl)-4-{1-[(2E)-3-(2-methoxypyridin-3-yl)prop-2-enoyl]piperidin-4-yl}benzamide] | 17.9 | –
Cn1nc(C(=O)N2CCC(c3ccc(C(=O)NCc4ccn5ccnc5c4)cc3)CC2)c2c1CCCC2 [Example 994, N-(imidazo[1,2-a]pyridin-7-ylmethyl)-4-{1-[(1-methyl-4,5,6,7-tetrahydro-1H-indazol-3-yl)carbonyl]piperidin-4-yl}benzamide] | 12.1 | –
Cn1c(C(=O)N2CCC(c3ccc(C(=O)NCc4ccn5ccnc5c4)cc3)CC2)cc2occc21 [Example 995, N-(imidazo[1,2-a]pyridin-7-ylmethyl)-4-{1-[(4-methyl-4H-furo[3,2-b]pyrrol-5-yl)carbonyl]piperidin-4-yl}benzamide] | 10.8 | –
N#Cc1cc(F)cc(C(=O)N2CCC(c3ccc(C(=O)NCc4ccn5ccnc5c4)cc3)CC2)c1 [Example 996, 4-[1-(3-cyano-5-fluorobenzoyl)piperidin-4-yl]-N-(imidazo[1,2-a]pyridin-7-ylmethyl)benzamide] | 62 | –
N#Cc1ccc(CC(=O)N2CCC(c3ccc(C(=O)NCc4ccn5ccnc5c4)cc3)CC2)cc1 [Example 998, 4-{1-[(4-cyanophenyl)acetyl]piperidin-4-yl}-N-(imidazo[1,2-a]pyridin-7-ylmethyl)benzamide] | 123 | –
O=C(NCc1ccn2ccnc2c1)c1ccc(C2CCN(C(=O)c3nc4c(s3)CCCC4)CC2)cc1 [Example 1000, N-(imidazo[1,2-a]pyridin-7-ylmethyl)-4-[1-(4,5,6,7-tetrahydro-1,3-benzothiazol-2-ylcarbonyl)piperidin-4-yl]benzamide] | 81.8 | –
CCc1cc(C(=O)N2CCC(c3ccc(C(=O)NCc4ccn5ccnc5c4)cc3)CC2)on1 [Example 1002, 4-{1-[(3-ethyl-1,2-oxazol-5-yl)carbonyl]piperidin-4-yl}-N-(imidazo[1,2-a]pyridin-7-ylmethyl)benzamide] | 154 | –
